# Calls of active or inactive are those of the source. Rule as the data show it, for most assays here: active = EC50 of 20 µM or less and inactive = more.
# Legend:
# Format in all cases: functional
# [1] = molecular target: T1, Endoribonuclease toxin MazF (Escherichia coli K-12, UniProt P0AE70); assay: substrate-only fluorescence increase artefacts – biochemical, single-stranded RNase substrate, counter-screen for MazEF activator project, dose response (AID 588502)
# T1 sequence (P0AE70 whole entry): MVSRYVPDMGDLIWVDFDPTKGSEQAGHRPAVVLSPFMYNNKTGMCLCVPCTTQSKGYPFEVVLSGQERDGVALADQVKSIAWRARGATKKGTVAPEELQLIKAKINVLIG
# [2] = molecular target: T1, Endoribonuclease toxin MazF; assay: activation of MazEF endoribonuclease cleavage – biochemical, fluorescence, single-stranded RNA substrate, uHTS hits, dose response (AID 588481)
# [3] = molecular target: T2, Sentrin-specific protease 1 (Homo sapiens, UniProt Q9P0U3); assay: Dose response confirmation of small molecule inhibitors of the catalytic domain of the SUMO protease, SENP1 in a FRET assay.; settings: read-out: IC50_Mean
# T2 sequence (Q9P0U3 whole entry): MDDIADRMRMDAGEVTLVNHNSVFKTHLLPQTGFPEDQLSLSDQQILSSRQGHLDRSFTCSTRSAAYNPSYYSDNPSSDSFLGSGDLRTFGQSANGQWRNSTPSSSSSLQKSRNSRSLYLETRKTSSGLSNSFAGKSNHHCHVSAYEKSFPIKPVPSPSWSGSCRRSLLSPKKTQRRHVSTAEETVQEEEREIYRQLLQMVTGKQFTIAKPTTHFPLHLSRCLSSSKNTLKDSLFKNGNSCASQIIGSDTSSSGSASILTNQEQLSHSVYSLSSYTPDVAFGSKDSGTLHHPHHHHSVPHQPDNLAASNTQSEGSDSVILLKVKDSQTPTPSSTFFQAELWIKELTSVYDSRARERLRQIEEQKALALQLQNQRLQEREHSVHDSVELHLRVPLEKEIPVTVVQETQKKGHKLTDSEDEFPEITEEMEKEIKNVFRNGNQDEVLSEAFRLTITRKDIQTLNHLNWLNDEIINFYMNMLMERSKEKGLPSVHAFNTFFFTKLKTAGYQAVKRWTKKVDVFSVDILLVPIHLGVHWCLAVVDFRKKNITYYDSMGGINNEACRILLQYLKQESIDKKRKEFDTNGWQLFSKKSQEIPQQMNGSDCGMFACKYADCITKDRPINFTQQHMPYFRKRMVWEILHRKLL
smiles,measurement,setting,value
Oc1ccc(Cl)cc1C1=Nc2ccccc2N=C(c2ccco2)C1,EC50,[1],> 99 µM (inactive)
same,EC50,[2],> 99 µM (inactive)
same,IC50,[3],8.31 µM (active)
